Reference: the NIST ThermoML archive (doi:10.1016/j.jct.2012.10.011)

What was measured:
[1] = Molar enthalpy of transition or fusion; conditions: Crystal; Adiabatic calorimetry
[2] = molar enthalpy of vaporization or sublimation; conditions: 298.15 K; Liquid; Static calorimetry
[3] = molar heat capacity at constant pressure; conditions: 101.33 kPa, Vacuum adiabatic calorimetry

CN=C=O [methyl isocyanate]
Conditions | Molar enthalpy of transition or fusion [kcal/mol] | molar enthalpy [kcal/mol]
[1] | 1.782 | –
[2] | – | 6.871

[3]
Conditions | molar heat capacity at constant pressure [J/K/mol]
14.71 K, Crystal | 2.971
15.61 K, Crystal | 3.494
16.68 K, Crystal | 4.234
18.13 K, Crystal | 5.318
19.93 K, Crystal | 6.837
20 K, Crystal | 6.9
21.81 K, Crystal | 8.41
25.1 K, Crystal | 11.4
27.08 K, Crystal | 13.31
29.42 K, Crystal | 15.5
30 K, Crystal | 16.07
31.96 K, Crystal | 17.95
34.72 K, Crystal | 20.64
38.26 K, Crystal | 23.96
40 K, Crystal | 25.53
42.59 K, Crystal | 27.81
47.01 K, Crystal | 31.56
50 K, Crystal | 34.07
51.57 K, Crystal | 35.36
56.6 K, Crystal | 39.11
60 K, Crystal | 41.49
60.37 K, Crystal | 41.76
62.3 K, Crystal | 43.18
65.89 K, Crystal | 45.61
70 K, Crystal | 48.2
71.87 K, Crystal | 49.37
78.77 K, Crystal | 53.47
80 K, Crystal | 54.31
85.79 K, Crystal | 57.74
88.54 K, Crystal | 59.08
90 K, Crystal | 59.83
91.98 K, Crystal | 60.67
94.33 K, Crystal | 61.76
97.68 K, Crystal | 63.18
100 K, Crystal | 64.14
100.44 K, Crystal | 64.31
102.2 K, Crystal | 64.94
104.38 K, Crystal | 65.94
109.48 K, Crystal | 67.86
110 K, Crystal | 68.03
112.6 K, Crystal | 68.66
115.84 K, Crystal | 69.87
118.15 K, Crystal | 70.67
120 K, Crystal | 71.25
120.45 K, Crystal | 71.25
121.38 K, Crystal | 71.63
126.84 K, Crystal | 73.26
128.41 K, Crystal | 73.55
130 K, Crystal | 73.97
134.41 K, Crystal | 75.06
134.59 K, Crystal | 75.1
135.09 K, Crystal | 75.27
136.89 K, Crystal | 75.48
136.94 K, Crystal | 75.65
140 K, Crystal | 76.36
141.89 K, Crystal | 76.82
141.97 K, Crystal | 76.94
142.35 K, Crystal | 76.96
146.02 K, Crystal | 77.82
148.22 K, Crystal | 78.32
149.33 K, Crystal | 78.45
150 K, Crystal | 78.7
151.79 K, Crystal | 79.04
155.37 K, Crystal | 79.91
156.39 K, Crystal | 80
160 K, Crystal | 81
160.19 K, Crystal | 79.83
161.8 K, Crystal | 81.59
163.79 K, Crystal | 82.42
166.13 K, Crystal | 83.6
167.44 K, Crystal | 83.09
168.2 K, Crystal | 82.26
169.15 K, Crystal | 83.01
169.49 K, Crystal | 82.34
170 K, Crystal | 83.39
171.56 K, Crystal | 83.51
172.5 K, Crystal | 83.39
173.3 K, Crystal | 84.35
180 K, Liquid | 103.4
183.24 K, Liquid | 103.39
186.5 K, Liquid | 103.34
187.36 K, Liquid | 103.26
